# In patent US4081441A, “Antibacterial agents” (priority 1977, dated 1978):
# Where two headings read alike, the source gives them in different places.
# Legend:
# [1] = Mouse blood (plasma) antibiotic levels after single intramuscular dose; format: in vivo; settings: im, 40 mg/kg, mice, 40 mg./kg. i.m.; for concentration at 0.25 h: 15 min.; for concentration at 0.5 h: 30 min.; for concentration at 1 h: 60 min.; for concentration at 1.5 h: 90 min.
# Method: Plasma antibiotic levels from mice administered a single intramuscular dose of 40 mg./kg. of BL-[…] or carbenicillin are shown in the following table.
# Bacteroides fragilis = assay: M.I.C. against anaerobic bacteria, Bacteroides fragilis; format: cell-based
# Cl. acidiurici = assay: M.I.C. against anaerobic bacteria, Cl. acidiurici; format: cell-based; settings: strain A9560
# Cl. perfringens = assay: microbe, parasite or virus in culture; format: cell-based; settings: Clostridium perfringens
# Pseudomonas aeruginosa [2] = assay: animal or person; settings: in Mus musculus, im
# Pseudomonas aeruginosa [3] = assay: Minimum Bactericidal Concentration, inoculum 10^5 cells/ml., at least 99.9% kill; format: cell-based
# Source text: The effect of increased inoculum size on the bactericidal activity of BL-P1908 was investigated by a second test in which an inoculum size of 10^5 cells/ml. was used and the M.B.C. was defined as the lowest concentration of antibiotics in mcg./ml. needed to kill at least 99.9% of viable Pseudomonas cells.
# Cl. cylindrosporum = assay: M.I.C. against anaerobic bacteria, Cl. cylindrosporum; format: cell-based; settings: strain A9562
# Pseudomonas aeruginosa [4] = assay: Minimum Bactericidal Concentration, inoculum 10^4 cells/ml., at least 99% kill; format: cell-based
# Method: The bactericidal in vitro activity of sodium D(-)-6-(α-(1,2,4-triazine-3,5-dione-6-carboxamido)-4-hydroxyphenylacetamido)penicillanate (BL-P1908) against several strains of Pseudomonas aeruginosa was determined under two sets of conditions. In one test the Minimum Bactericidal Concentrations (M.B.C.) were determined using an inoculum size of 10^4 cells/ml. and the M.B.C. was defined as the lowest concentration of antibiotic in mcg./ml. needed to kill at least 99% of the viable Pseudomonas cells.
# Cl. ramosum = assay: M.I.C. against anaerobic bacteria, Cl. ramosum; format: cell-based; settings: Thomasclavelia ramosa
# Cl. septicum = assay: M.I.C. against anaerobic bacteria, Cl. septicum; format: cell-based; settings: Clostridium septicum; strain A21869
# Pseudomonas aeruginosa [5] = assay: Minimum Inhibitory Concentration, agar dilution, overnight incubation at 37° C.; format: cell-based; settings: Pseudomonas aeruginosa
# Source text: A carbenicillin sample was also run for comparative purposes.
# Cl. difficile = assay: M.I.C. against anaerobic bacteria, Cl. difficile; format: cell-based; settings: Clostridioides difficile
# [6] = Ave. of Tests 1 and 2, read-out: Blood Level
# [7] = Test 1 (Ave. of 6 mice tested), read-out: Blood Level
# [8] = Test 2 (Ave. of 8 mice tested), read-out: Blood Level
# [9] = read-out: PD50 /treatment, P. aeruginosa A9843A, challenge 1 × 10^4, i.m., at 0 and 2 hours
# [10] = read-out: PD50 /treatment, P. aeruginosa A9843A, challenge 2 × 10^4, i.m., at 0 and 2 hours
# [11] = read-out: PD50 /treatment, P. aeruginosa A9843A, challenge 3 × 10^4, i.m., at 0 and 2 hours
# [12] = read-out: PD50 /treatment, P. aeruginosa A20599, challenge 3 × 10^4, i.m., at 0 and 2 hours
# [13] = read-out: PD50 /treatment, P. aeruginosa A20599, challenge 6 × 10^4, i.m., at 0 and 2 hours
structure (smiles),measurement,setting,value
"CC1(C)S[C@@H]2[C@H](NC(=O)[C@H](NC(=O)c3n[nH]c(=O)[nH]c3=O)c3ccc(O)cc3)C(=O)N2[C@H]1C(=O)O [BL-P1908, sodium D(-)-6-(α-(1,2,4-triazine-3,5-dione-6-carboxamido)-4-hydroxyphenylacetamido)penicillanate]",concentration at 0.25 h,[1]; [6],26700 ng/mL
same,concentration at 0.25 h,[1]; [7],24900 ng/mL
same,concentration at 0.25 h,[1]; [8],28400 ng/mL
same,concentration at 0.5 h,[1]; [6],17300 ng/mL
same,concentration at 0.5 h,[1]; [7],19400 ng/mL
same,concentration at 0.5 h,[1]; [8],15100 ng/mL
same,concentration at 1 h,[1]; [6],5300 ng/mL
same,concentration at 1 h,[1]; [7],7500 ng/mL
same,concentration at 1 h,[1]; [8],3000 ng/mL
same,concentration at 1.5 h,[1]; [6],< 2900 ng/mL
same,concentration at 1.5 h,[1]; [7],< 3900 ng/mL
same,concentration at 1.5 h,[1]; [8],< 1800 ng/mL
same,MIC,Bacteroides fragilis; strain A20920,1 µg/mL
same,MIC,Bacteroides fragilis; strain A20926,2 µg/mL
same,MIC,Bacteroides fragilis; strain A20927-1,1 µg/mL
same,MIC,Bacteroides fragilis; strain A20930,16 µg/mL
same,MIC,Bacteroides fragilis; strain A20933,8 µg/mL
same,MIC,Bacteroides fragilis; strain A20934,4 µg/mL
same,MIC,Bacteroides fragilis; strain A20935,1 µg/mL
same,MIC,Bacteroides fragilis; strain A21870,16 µg/mL
same,MIC,Bacteroides fragilis; strain A21871,16 µg/mL
same,MIC,Bacteroides fragilis; strain A21872,16 µg/mL
same,MIC,Bacteroides fragilis; strain A21875,4 µg/mL
same,MIC,Bacteroides fragilis; strain A22053,8 µg/mL
same,MIC,Bacteroides fragilis; strain A27020,16 µg/mL
same,MIC,Cl. acidiurici,1 µg/mL
same,MIC,Cl. perfringens; strain A21873,0.13 µg/mL
same,MIC,Cl. perfringens; strain A21874,0.13 µg/mL
same,MIC,Cl. perfringens; strain A21907,0.13 µg/mL
same,ED50,Pseudomonas aeruginosa [2]; [9],4.8 mg/kg
same,ED50,Pseudomonas aeruginosa [2]; [10],2.5 mg/kg
same,ED50,Pseudomonas aeruginosa [2]; [11],11 mg/kg
same,ED50,Pseudomonas aeruginosa [2]; [12],5.4 mg/kg
same,ED50,Pseudomonas aeruginosa [2]; [13],9.6 mg/kg
same,MBC,Pseudomonas aeruginosa [3]; strain 9843A,500 µg/mL
same,MBC,Pseudomonas aeruginosa [3]; strain 9910,500 µg/mL
same,MBC,Pseudomonas aeruginosa [3]; strain 9926,250 µg/mL
same,MBC,Pseudomonas aeruginosa [3]; strain 20126,32 µg/mL
same,MBC,Pseudomonas aeruginosa [3]; strain 20128,16 µg/mL
same,MBC,Pseudomonas aeruginosa [3]; strain 20227,4 µg/mL
same,MBC,Pseudomonas aeruginosa [3]; strain 20228,250 µg/mL
same,MBC,Pseudomonas aeruginosa [3]; strain 20546,500 µg/mL
same,MBC,Pseudomonas aeruginosa [3]; strain 20557,1000 µg/mL
same,MBC,Pseudomonas aeruginosa [3]; strain 20574,> 1000 µg/mL
same,MBC,Pseudomonas aeruginosa [3]; strain 20602,1000 µg/mL
same,MBC,Pseudomonas aeruginosa [3]; strain 20616,1000 µg/mL
same,MBC,Pseudomonas aeruginosa [3]; strain 20641,1000 µg/mL
same,MBC,Pseudomonas aeruginosa [3]; strain 20717,> 1000 µg/mL
same,MBC,Pseudomonas aeruginosa [3]; strain 20726,1000 µg/mL
same,MBC,Pseudomonas aeruginosa [3]; strain 21336,1000 µg/mL
same,MIC,Cl. cylindrosporum,16 µg/mL
same,MBC,Pseudomonas aeruginosa [4]; strain 9843A,63 µg/mL
same,MBC,Pseudomonas aeruginosa [4]; strain 9910,1 µg/mL
same,MBC,Pseudomonas aeruginosa [4]; strain 9926,2 µg/mL
same,MBC,Pseudomonas aeruginosa [4]; strain 20126,2 µg/mL
same,MBC,Pseudomonas aeruginosa [4]; strain 20128,2 µg/mL
same,MBC,Pseudomonas aeruginosa [4]; strain 20227,2 µg/mL
same,MBC,Pseudomonas aeruginosa [4]; strain 20228,8 µg/mL
same,MBC,Pseudomonas aeruginosa [4]; strain 20546,1 µg/mL
same,MBC,Pseudomonas aeruginosa [4]; strain 20557,16 µg/mL
same,MBC,Pseudomonas aeruginosa [4]; strain 20574,2 µg/mL
same,MBC,Pseudomonas aeruginosa [4]; strain 20616,2 µg/mL
same,MBC,Pseudomonas aeruginosa [4]; strain 20641,4 µg/mL
same,MBC,Pseudomonas aeruginosa [4]; strain 20717,63 µg/mL
same,MBC,Pseudomonas aeruginosa [4]; strain 20726,2 µg/mL
same,MBC,Pseudomonas aeruginosa [4]; strain 21336,2 µg/mL
same,MIC,Cl. ramosum; strain A21883,0.25 µg/mL
same,MIC,Cl. ramosum; strain A21970,2 µg/mL
same,MIC,Cl. septicum,1 µg/mL
same,MIC,Pseudomonas aeruginosa [5]; strain A9502,2 µg/mL
same,MIC,Pseudomonas aeruginosa [5]; strain A9827,1 µg/mL
same,MIC,Pseudomonas aeruginosa [5]; strain A9910,1 µg/mL
same,MIC,Pseudomonas aeruginosa [5]; strain A9923,2 µg/mL
same,MIC,Pseudomonas aeruginosa [5]; strain A9924,2 µg/mL
same,MIC,Pseudomonas aeruginosa [5]; strain A9925,1 µg/mL
same,MIC,Pseudomonas aeruginosa [5]; strain A9926,1 µg/mL
same,MIC,Pseudomonas aeruginosa [5]; strain A9930,2 µg/mL
same,MIC,Pseudomonas aeruginosa [5]; strain A9931,1 µg/mL
same,MIC,Pseudomonas aeruginosa [5]; strain A15150,2 µg/mL
same,MIC,Pseudomonas aeruginosa [5]; strain A15151,8 µg/mL
same,MIC,Pseudomonas aeruginosa [5]; strain A15194,4 µg/mL
same,MIC,Pseudomonas aeruginosa [5]; strain A15195,2 µg/mL
same,MIC,Pseudomonas aeruginosa [5]; strain A15196,2 µg/mL
same,MIC,Pseudomonas aeruginosa [5]; strain A20125,2 µg/mL
same,MIC,Pseudomonas aeruginosa [5]; strain A20126,0.5 µg/mL
same,MIC,Pseudomonas aeruginosa [5]; strain A20127,1 µg/mL
same,MIC,Pseudomonas aeruginosa [5]; strain A20128,1 µg/mL
same,MIC,Pseudomonas aeruginosa [5]; strain A20129,1 µg/mL
same,MIC,Pseudomonas aeruginosa [5]; strain A20130,1 µg/mL
same,MIC,Pseudomonas aeruginosa [5]; strain A20227,0.5 µg/mL
same,MIC,Pseudomonas aeruginosa [5]; strain A20228,1 µg/mL
same,MIC,Pseudomonas aeruginosa [5]; strain A20546,2 µg/mL
same,MIC,Pseudomonas aeruginosa [5]; strain A20557,4 µg/mL
same,MIC,Pseudomonas aeruginosa [5]; strain A20574,0.5 µg/mL
same,MIC,Pseudomonas aeruginosa [5]; strain A20602,2 µg/mL
same,MIC,Pseudomonas aeruginosa [5]; strain A20616,1 µg/mL
same,MIC,Pseudomonas aeruginosa [5]; strain A20641,0.5 µg/mL
same,MIC,Pseudomonas aeruginosa [5]; strain A20717,4 µg/mL
same,MIC,Pseudomonas aeruginosa [5]; strain A20726,1 µg/mL
same,MIC,Pseudomonas aeruginosa [5]; strain A21336,2 µg/mL
same,MIC,Cl. difficile; strain A21675,2 µg/mL
same,MIC,Cl. difficile; strain A21972,4 µg/mL
"CC1(C)S[C@@H]2[C@H](NC(=O)[C@H](NC(=O)c3n[nH]c(=S)[nH]c3=O)c3ccc(O)cc3)C(=O)N2[C@H]1C(=O)O [BL-P1937, sodium D(-)-6-(α-(1,2,4-triazine-3-thione-5-one-6-carboxamido)-4-hydroxyphenylacetamido)-penicillanate]",MIC,Bacteroides fragilis; strain A20920,0.5 µg/mL
same,MIC,Bacteroides fragilis; strain A20926,2 µg/mL
same,MIC,Bacteroides fragilis; strain A20927-1,1 µg/mL
same,MIC,Bacteroides fragilis; strain A20930,16 µg/mL
same,MIC,Bacteroides fragilis; strain A20933,4 µg/mL
same,MIC,Bacteroides fragilis; strain A20934,4 µg/mL
same,MIC,Bacteroides fragilis; strain A20935,2 µg/mL
same,MIC,Bacteroides fragilis; strain A21870,1 µg/mL
same,MIC,Bacteroides fragilis; strain A21871,2 µg/mL
same,MIC,Bacteroides fragilis; strain A21872,16 µg/mL
same,MIC,Bacteroides fragilis; strain A21875,8 µg/mL
same,MIC,Bacteroides fragilis; strain A22053,2 µg/mL
same,MIC,Bacteroides fragilis; strain A27020,8 µg/mL
same,MIC,Cl. acidiurici,1 µg/mL
same,MIC,Cl. perfringens; strain A21873,0.063 µg/mL
same,MIC,Cl. perfringens; strain A21874,0.13 µg/mL
same,MIC,Cl. perfringens; strain A21907,0.25 µg/mL
same,ED50,Pseudomonas aeruginosa [2]; [9],11 mg/kg
same,ED50,Pseudomonas aeruginosa [2]; [10],5.4 mg/kg
same,ED50,Pseudomonas aeruginosa [2]; [11],11 mg/kg
same,ED50,Pseudomonas aeruginosa [2]; [12],~13 mg/kg
same,ED50,Pseudomonas aeruginosa [2]; [13],22 mg/kg
same,MIC,Cl. cylindrosporum,0.25 µg/mL
same,MIC,Cl. ramosum; strain A21883,0.25 µg/mL
same,MIC,Cl. ramosum; strain A21970,2 µg/mL
same,MIC,Cl. septicum,1 µg/mL
same,MIC,Cl. difficile; strain A21675,4 µg/mL
same,MIC,Cl. difficile; strain A21972,4 µg/mL
